Data as given in US20260356819A1, “OXOISOINDOLINYL-SUBSTITUTED […] DERIVATIVE AND USE THEREOF” (GLUETACS THERAPEUTICS (SHANGHAI) CO., LTD., priority 2023, published 2026).

Legend:
Type in all cases: cell-based
Conditions in all cases: compounds at 50 nM and 500 nM
GSPT1 = target: T1, GSPT1 (Homo sapiens, UniProt P15170+Q96SW2); experiment: Western blot degradation of GSPT1 in hPBMCs (24 h)
T1 construct: The supernatant was aspirated as the extracted total cell protein; endogenous in cells; host or cells: human peripheral blood mononuclear cells (hPBMCs)
T1 sequence (P15170 whole entry): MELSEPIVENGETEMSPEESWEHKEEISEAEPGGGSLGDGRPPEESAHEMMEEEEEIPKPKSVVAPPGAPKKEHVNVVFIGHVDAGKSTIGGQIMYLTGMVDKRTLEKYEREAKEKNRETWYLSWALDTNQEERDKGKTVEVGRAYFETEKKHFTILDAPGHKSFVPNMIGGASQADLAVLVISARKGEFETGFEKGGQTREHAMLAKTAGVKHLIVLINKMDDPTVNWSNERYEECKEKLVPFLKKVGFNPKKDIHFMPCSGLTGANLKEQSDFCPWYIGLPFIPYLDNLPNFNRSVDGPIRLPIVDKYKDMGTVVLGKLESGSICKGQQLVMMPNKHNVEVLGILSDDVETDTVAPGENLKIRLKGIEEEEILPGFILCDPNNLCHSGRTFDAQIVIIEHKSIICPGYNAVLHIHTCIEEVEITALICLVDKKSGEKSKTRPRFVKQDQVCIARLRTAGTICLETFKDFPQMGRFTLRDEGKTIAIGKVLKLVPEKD
T1 sequence (Q96SW2 whole entry): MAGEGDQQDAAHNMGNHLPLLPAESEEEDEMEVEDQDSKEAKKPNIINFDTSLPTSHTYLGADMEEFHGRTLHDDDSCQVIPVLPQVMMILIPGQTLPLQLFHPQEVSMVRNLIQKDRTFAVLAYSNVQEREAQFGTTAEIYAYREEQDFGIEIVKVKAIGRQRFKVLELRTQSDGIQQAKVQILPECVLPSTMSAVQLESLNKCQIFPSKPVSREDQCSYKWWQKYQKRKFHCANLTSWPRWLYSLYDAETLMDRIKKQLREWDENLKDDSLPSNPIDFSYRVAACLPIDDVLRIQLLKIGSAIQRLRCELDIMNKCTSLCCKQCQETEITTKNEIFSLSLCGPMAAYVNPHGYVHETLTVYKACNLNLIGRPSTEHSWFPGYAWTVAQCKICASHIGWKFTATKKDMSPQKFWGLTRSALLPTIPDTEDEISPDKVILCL
T1 sequence (Q16531 whole entry partner): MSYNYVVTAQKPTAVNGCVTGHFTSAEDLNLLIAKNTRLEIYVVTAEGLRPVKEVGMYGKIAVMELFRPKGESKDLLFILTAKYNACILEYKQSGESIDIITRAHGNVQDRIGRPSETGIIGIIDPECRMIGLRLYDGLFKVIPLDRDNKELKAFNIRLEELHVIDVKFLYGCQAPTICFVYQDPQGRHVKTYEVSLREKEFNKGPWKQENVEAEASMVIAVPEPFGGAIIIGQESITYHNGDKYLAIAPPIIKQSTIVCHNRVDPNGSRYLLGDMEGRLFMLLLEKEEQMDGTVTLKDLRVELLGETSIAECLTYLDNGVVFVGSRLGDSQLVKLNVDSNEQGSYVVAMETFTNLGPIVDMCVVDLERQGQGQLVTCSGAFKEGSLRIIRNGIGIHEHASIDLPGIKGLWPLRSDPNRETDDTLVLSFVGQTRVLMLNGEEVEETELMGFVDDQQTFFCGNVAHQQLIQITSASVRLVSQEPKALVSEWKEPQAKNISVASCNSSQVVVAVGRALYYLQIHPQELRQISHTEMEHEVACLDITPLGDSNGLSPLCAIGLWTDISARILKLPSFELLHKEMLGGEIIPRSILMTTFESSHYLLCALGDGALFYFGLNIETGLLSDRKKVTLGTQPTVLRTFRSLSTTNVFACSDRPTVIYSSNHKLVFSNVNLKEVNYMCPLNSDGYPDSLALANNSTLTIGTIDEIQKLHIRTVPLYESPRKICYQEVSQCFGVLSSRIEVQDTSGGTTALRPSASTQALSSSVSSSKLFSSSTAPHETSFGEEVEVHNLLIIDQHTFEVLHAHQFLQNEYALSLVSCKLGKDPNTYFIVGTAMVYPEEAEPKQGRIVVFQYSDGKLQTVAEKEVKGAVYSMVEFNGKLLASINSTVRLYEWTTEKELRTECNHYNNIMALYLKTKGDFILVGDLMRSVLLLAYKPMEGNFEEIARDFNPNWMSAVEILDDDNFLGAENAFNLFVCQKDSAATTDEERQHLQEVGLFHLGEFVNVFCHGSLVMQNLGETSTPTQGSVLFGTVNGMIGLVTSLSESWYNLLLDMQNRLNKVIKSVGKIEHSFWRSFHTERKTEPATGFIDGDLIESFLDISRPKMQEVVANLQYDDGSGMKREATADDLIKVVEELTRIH
How it was run: (§1)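 hPBMCs (1×10^6 cells/mL) exposed to compound at 50 nM and 500 nM for 24 h, DMSO as reference. Lysates run on SDS-PAGE and immunoblotted. Band grayscale normalized to internal control gives % protein remaining; DC50 from fitted concentration-response of band intensity versus DMSO.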

IKZF3 = target: T2, IKZF3 (Homo sapiens, UniProt Q96SW2+Q9UKT9); experiment: Western blot degradation of IKZF3 in hPBMCs (24 h)
T2 construct: The supernatant was aspirated as the extracted total cell protein; endogenous in cells; host or cells: human peripheral blood mononuclear cells (hPBMCs)
T2 sequence (Q9UKT9 whole entry): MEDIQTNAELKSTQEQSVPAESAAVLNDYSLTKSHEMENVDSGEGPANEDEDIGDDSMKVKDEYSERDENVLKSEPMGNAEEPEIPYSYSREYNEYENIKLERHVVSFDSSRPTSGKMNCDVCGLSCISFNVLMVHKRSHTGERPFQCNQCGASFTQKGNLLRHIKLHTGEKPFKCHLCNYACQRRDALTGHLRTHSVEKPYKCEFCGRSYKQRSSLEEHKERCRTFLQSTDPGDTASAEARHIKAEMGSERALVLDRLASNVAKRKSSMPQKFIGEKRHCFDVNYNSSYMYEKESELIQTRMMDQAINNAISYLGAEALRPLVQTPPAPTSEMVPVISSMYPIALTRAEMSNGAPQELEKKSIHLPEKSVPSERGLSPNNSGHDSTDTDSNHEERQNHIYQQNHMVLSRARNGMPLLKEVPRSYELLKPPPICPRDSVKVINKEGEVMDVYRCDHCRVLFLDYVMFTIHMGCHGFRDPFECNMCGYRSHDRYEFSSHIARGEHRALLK
T2 sequence (Q96SW2 whole entry): as the sequence (Q96SW2 whole entry) above
T2 sequence (Q16531 whole entry partner): as the sequence (Q16531 whole entry partner) above
How it was run: as §1

IKZF2 = target: T3, IKZF2 (Homo sapiens, UniProt Q96SW2+Q9UKS7); experiment: Western blot degradation of IKZF2 in hPBMCs (24 h)
T3 construct: The supernatant was aspirated as the extracted total cell protein; endogenous in cells; host or cells: human peripheral blood mononuclear cells (hPBMCs)
T3 sequence (Q9UKS7 whole entry): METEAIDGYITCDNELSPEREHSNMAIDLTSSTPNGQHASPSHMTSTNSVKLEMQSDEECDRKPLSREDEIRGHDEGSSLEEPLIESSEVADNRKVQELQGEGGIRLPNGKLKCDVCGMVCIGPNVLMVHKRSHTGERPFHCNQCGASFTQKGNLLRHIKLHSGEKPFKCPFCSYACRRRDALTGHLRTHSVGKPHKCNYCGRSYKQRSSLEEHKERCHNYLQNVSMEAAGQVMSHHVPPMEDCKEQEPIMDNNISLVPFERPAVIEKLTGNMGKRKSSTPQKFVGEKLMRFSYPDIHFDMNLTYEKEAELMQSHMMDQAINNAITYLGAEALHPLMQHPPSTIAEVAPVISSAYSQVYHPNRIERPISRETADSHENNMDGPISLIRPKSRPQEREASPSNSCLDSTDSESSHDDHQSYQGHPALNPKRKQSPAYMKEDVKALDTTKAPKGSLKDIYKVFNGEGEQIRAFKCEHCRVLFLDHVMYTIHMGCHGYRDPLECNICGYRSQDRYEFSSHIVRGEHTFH
T3 sequence (Q96SW2 whole entry): as the sequence (Q96SW2 whole entry) above
T3 sequence (Q16531 whole entry partner): as the sequence (Q16531 whole entry partner) above
How it was run: as §1

IKZF1 = target: T4, IKZF1 (Homo sapiens, UniProt Q13422+Q96SW2); experiment: Western blot degradation of IKZF1 in hPBMCs (24 h)
T4 construct: The supernatant was aspirated as the extracted total cell protein; endogenous in cells; host or cells: human peripheral blood mononuclear cells (hPBMCs)
T4 sequence (Q13422 whole entry): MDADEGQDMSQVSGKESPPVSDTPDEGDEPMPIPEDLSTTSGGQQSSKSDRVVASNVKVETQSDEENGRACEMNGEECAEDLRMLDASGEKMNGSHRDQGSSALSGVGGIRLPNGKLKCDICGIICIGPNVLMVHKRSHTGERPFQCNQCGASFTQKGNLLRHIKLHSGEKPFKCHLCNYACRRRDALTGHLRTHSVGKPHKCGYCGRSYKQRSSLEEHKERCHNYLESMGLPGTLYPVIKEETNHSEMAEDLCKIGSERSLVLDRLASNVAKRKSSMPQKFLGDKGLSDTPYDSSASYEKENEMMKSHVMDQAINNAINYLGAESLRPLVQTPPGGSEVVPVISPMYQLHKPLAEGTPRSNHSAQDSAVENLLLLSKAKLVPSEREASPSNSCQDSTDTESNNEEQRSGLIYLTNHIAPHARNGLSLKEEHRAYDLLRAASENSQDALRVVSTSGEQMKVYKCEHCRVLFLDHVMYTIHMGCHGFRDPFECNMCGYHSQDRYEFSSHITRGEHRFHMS
T4 sequence (Q96SW2 whole entry): as the sequence (Q96SW2 whole entry) above
T4 sequence (Q16531 whole entry partner): as the sequence (Q16531 whole entry partner) above
How it was run: as §1

CK1α = target: T5, CK1α (Homo sapiens, UniProt P48729+Q96SW2); experiment: Western blot degradation of CK1α in hPBMCs (24 h)
T5 construct: The supernatant was aspirated as the extracted total cell protein; endogenous in cells; host or cells: human peripheral blood mononuclear cells (hPBMCs)
How it was run: as §1

WEE1 = target: T6, WEE1 (Homo sapiens, UniProt P30291+Q96SW2); experiment: Western blot degradation of WEE1 in hPBMCs (24 h)
T6 construct: The supernatant was aspirated as the extracted total cell protein; endogenous in cells; host or cells: human peripheral blood mononuclear cells (hPBMCs)
T6 sequence (P30291 whole entry): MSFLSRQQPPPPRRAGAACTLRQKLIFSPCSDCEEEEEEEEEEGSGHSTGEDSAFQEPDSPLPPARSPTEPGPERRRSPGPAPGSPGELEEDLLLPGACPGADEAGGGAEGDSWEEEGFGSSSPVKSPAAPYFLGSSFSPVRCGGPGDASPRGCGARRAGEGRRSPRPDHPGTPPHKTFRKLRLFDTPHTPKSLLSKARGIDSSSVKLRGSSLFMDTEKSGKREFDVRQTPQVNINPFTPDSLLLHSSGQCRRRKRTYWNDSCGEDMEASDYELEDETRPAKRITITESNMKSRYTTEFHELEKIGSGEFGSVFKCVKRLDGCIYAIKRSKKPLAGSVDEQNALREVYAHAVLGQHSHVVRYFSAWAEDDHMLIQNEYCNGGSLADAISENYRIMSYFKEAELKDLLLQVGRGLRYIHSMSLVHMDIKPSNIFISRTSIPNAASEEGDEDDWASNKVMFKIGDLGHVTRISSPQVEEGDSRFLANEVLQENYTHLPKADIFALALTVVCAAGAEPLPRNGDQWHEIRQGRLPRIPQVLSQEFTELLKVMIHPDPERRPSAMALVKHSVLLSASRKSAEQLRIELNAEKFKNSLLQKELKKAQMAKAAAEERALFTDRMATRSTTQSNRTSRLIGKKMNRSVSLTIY
T6 sequence (Q96SW2 whole entry): as the sequence (Q96SW2 whole entry) above
T6 sequence (Q16531 whole entry partner): as the sequence (Q16531 whole entry partner) above
How it was run: as §1

Row | Structure (SMILES) | GSPT1 substrate protein remaining % (GSPT1) | IKZF3 substrate protein remaining % (IKZF3) | IKZF2 substrate protein remaining % (IKZF2) | IKZF1 substrate protein remaining % (IKZF1) | CK1α substrate protein remaining % (CK1α) | WEE1 substrate protein remaining % (WEE1)
1 | CC1CN(Cc2ccc3c(c2)C(=O)N(N2CCC(=O)NC2=O)C3=O)CC(C)N1C(c1ccccc1)c1ccccc1 (stereo not drawn) [GT-06430, 5-((4-benzhydryl-3,5-dimethylpiperazin-1-yl)methyl)-2-(2,4-dioxotetrahydropyrimidin-1(2H)-yl)isoindoline-1,3-dione] | A (0% ≤ substrate protein remaining % ≤80%) | A (0% ≤ substrate protein remaining % ≤80%) | B (80%< substrate protein remaining % ≤100%) | A (0% ≤ substrate protein remaining % ≤80%) | B (80%< substrate protein remaining % ≤100%) | A (0% ≤ substrate protein remaining % ≤80%)
2 | CC1CN(Cc2ccc3c(c2)CN(N2CCC(=O)NC2=O)C3=O)CC(C)N1C(c1ccccc1)c1ccccc1 (stereo not drawn) [GT-06431, 1-(5-((4-benzhydryl-3,5-dimethylpiperazin-1-yl)methyl)-1-oxoisoindolin-2-yl)dihydropyrimidine-2,4(1H,3H)-dione] | A (0% ≤ substrate protein remaining % ≤80%) | B (80%< substrate protein remaining % ≤100%) | A (0% ≤ substrate protein remaining % ≤80%) | A (0% ≤ substrate protein remaining % ≤80%) | B (80%< substrate protein remaining % ≤100%) | A (0% ≤ substrate protein remaining % ≤80%)
3 | O=C1CCN(N2C(=O)c3ccc(CN4CCN(Cc5ccccc5-c5ccc(Cl)cc5)CC4)cc3C2=O)C(=O)N1 [GT-06432, 5-((4-((4′-chloro-[1,1′-biphenyl]-2-yl)methyl)piperazin-1-yl)methyl)-2-(2,4-dioxotetrahydropyrimidin-1(2H)-yl)isoindoline-1,3-dione] | A (0% ≤ substrate protein remaining % ≤80%) | B (80%< substrate protein remaining % ≤100%) | B (80%< substrate protein remaining % ≤100%) | A (0% ≤ substrate protein remaining % ≤80%) | B (80%< substrate protein remaining % ≤100%) | A (0% ≤ substrate protein remaining % ≤80%)
4 | O=C1CCN(N2Cc3cc(CN4CCN(Cc5ccccc5-c5ccc(Cl)cc5)CC4)ccc3C2=O)C(=O)N1 [GT-06433, 1-(5-((4-((4′-chloro-[1,1′-biphenyl]-2-yl)methyl)piperazin-1-yl)methyl)-1-oxoisoindolin-2-yl)dihydropyrimidine-2,4(1H,3H)-dione] | A (0% ≤ substrate protein remaining % ≤80%) | A (0% ≤ substrate protein remaining % ≤80%) | A (0% ≤ substrate protein remaining % ≤80%) | A (0% ≤ substrate protein remaining % ≤80%) | B (80%< substrate protein remaining % ≤100%) | A (0% ≤ substrate protein remaining % ≤80%)
5 | Cc1ccsc1C1=CCN(Cc2ccc3c(c2)C(=O)N(N2CCC(=O)NC2=O)C3=O)CC1 [GT-06434, 2-(2,4-dioxotetrahydropyrimidin-1(2H)-yl)-5-((4-(3-methylthiophen-2-yl)-3,6-dihydropyridin-1(2H)-yl)methyl)isoindoline-1,3-dione] | A (0% ≤ substrate protein remaining % ≤80%) | A (0% ≤ substrate protein remaining % ≤80%) | A (0% ≤ substrate protein remaining % ≤80%) | B (80%< substrate protein remaining % ≤100%) | B (80%< substrate protein remaining % ≤100%) | A (0% ≤ substrate protein remaining % ≤80%)
6 | O=C1CCN(N2C(=O)c3ccc(CN4CC=C(c5ccsc5)CC4)cc3C2=O)C(=O)N1 [GT-06435, 2-(2,4-dioxotetrahydropyrimidin-1(2H)-yl)-5-((4-(thiophen-3-yl)-3,6-dihydropyridin-1(2H)-yl)methyl)isoindoline-1,3-dione] | A (0% ≤ substrate protein remaining % ≤80%) | A (0% ≤ substrate protein remaining % ≤80%) | A (0% ≤ substrate protein remaining % ≤80%) | B (80%< substrate protein remaining % ≤100%) | B (80%< substrate protein remaining % ≤100%) | A (0% ≤ substrate protein remaining % ≤80%)
7 | C[C@@H]1CN(C(c2ccccc2)c2ccccc2)CCN1Cc1ccc2c(c1)CN(N1CCC(=O)NC1=O)C2=O [GT-06448, (R)-1-(5-((4-benzhydryl-2-methylpiperazin-1-yl)methyl)-1-oxoisoindolin-2-yl)dihydropyrimidine-2,4(1H,3H)-dione] | A (0% ≤ substrate protein remaining % ≤80%) | A (0% ≤ substrate protein remaining % ≤80%) | A (0% ≤ substrate protein remaining % ≤80%) | B (80%< substrate protein remaining % ≤100%) | B (80%< substrate protein remaining % ≤100%) | B (80%< substrate protein remaining % ≤100%)
8 | C[C@@H]1CN(C(c2ccccc2)c2ccccc2)CCN1Cc1ccc2c(c1)C(=O)N(N1CCC(=O)NC1=O)C2=O [GT-06449, (R)-5-((4-benzhydryl-2-methylpiperazin-1-yl)methyl)-2-(2,4-dioxotetrahydropyrimidin-1(2H)-yl)isoindoline-1,3-dione] | A (0% ≤ substrate protein remaining % ≤80%) | A (0% ≤ substrate protein remaining % ≤80%) | A (0% ≤ substrate protein remaining % ≤80%) | B (80%< substrate protein remaining % ≤100%) | B (80%< substrate protein remaining % ≤100%) | B (80%< substrate protein remaining % ≤100%)
9 | O=C1CCN(N2Cc3cc(CN4CC5CCC4CN5C(c4ccccc4)c4ccccc4)ccc3C2=O)C(=O)N1 (stereo not drawn) [GT-06450, 1-(5-((5-benzhydryl-2,5-diazabicyclo[2.2.2]octan-2-yl)methyl)-1-oxoisoindolin-2-yl)dihydropyrimidine-2,4(1H,3H)-dione] | A (0% ≤ substrate protein remaining % ≤80%) | A (0% ≤ substrate protein remaining % ≤80%) | A (0% ≤ substrate protein remaining % ≤80%) | B (80%< substrate protein remaining % ≤100%) | B (80%< substrate protein remaining % ≤100%) | A (0% ≤ substrate protein remaining % ≤80%)
10 | O=C1CCN(N2C(=O)c3ccc(CN4CC5CCC4CN5C(c4ccccc4)c4ccccc4)cc3C2=O)C(=O)N1 (stereo not drawn) [GT-06451, 5-((5-benzhydryl-2,5-diazabicyclo[2.2.2]octan-2-yl)methyl)-2-(2,4-dioxotetrahydropyrimidin-1(2H)-yl)isoindoline-1,3-dione] | B (80%< substrate protein remaining % ≤100%) | B (80%< substrate protein remaining % ≤100%) | B (80%< substrate protein remaining % ≤100%) | B (80%< substrate protein remaining % ≤100%) | B (80%< substrate protein remaining % ≤100%) | A (0% ≤ substrate protein remaining % ≤80%)
11 | O=C1CCN(N2Cc3cc(CN4CC5CCC(C4)N5C(c4ccccc4)c4ccccc4)ccc3C2=O)C(=O)N1 [GT-06452, 1-(5-((8-benzhydryl-3,8-diazabicyclo[3.2.1]octan-3-yl)methyl)-1-oxoisoindolin-2-yl)dihydropyrimidine-2,4(1H,3H)-dione] | B (80%< substrate protein remaining % ≤100%) | B (80%< substrate protein remaining % ≤100%) | B (80%< substrate protein remaining % ≤100%) | B (80%< substrate protein remaining % ≤100%) | B (80%< substrate protein remaining % ≤100%) | A (0% ≤ substrate protein remaining % ≤80%)
12 | O=C1CCN(N2C(=O)c3ccc(CN4CC5CCC(C4)N5C(c4ccccc4)c4ccccc4)cc3C2=O)C(=O)N1 [GT-06453, 5-((8-benzhydryl-3,8-diazabicyclo[3.2.1]octan-3-yl)methyl)-2-(2,4-dioxotetrahydropyrimidin-1(2H)-yl)isoindoline-1,3-dione] | B (80%< substrate protein remaining % ≤100%) | B (80%< substrate protein remaining % ≤100%) | A (0% ≤ substrate protein remaining % ≤80%) | B (80%< substrate protein remaining % ≤100%) | B (80%< substrate protein remaining % ≤100%) | B (80%< substrate protein remaining % ≤100%)
